From patent US12157730B2, “Heteroaryl derivative, method for producing same, and pharmaceutical composition comprising same as effective component” (VORONOI INC., priority 2019, dated 2024)

Biological target: T1, Ba/F3 cell EGFR Exon20 ins NPH (Homo sapiens, UniProt P00533, INS773NPH)
T1 construct: expressed in transfected cells; host or cells: Ba/F3
Experiment: Ba/F3 cell proliferation suppression, EGFR Exon20 ins NPH
Format: cell-based
Conditions: GI50 class; Ba/F3 cell line with NPH inserted at Exon20 of EGFR; 72 hours
How it was run: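 Seed 3000–5000 cells/well; after 24 h add compound (12 conc., 0.3 nM–50 um final); incubate 72 h; add CellTiter-Glo, 10 min room temperature; read luminescence; GI50 from % growth vs control, triplicate.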

Row | SMILES | Ba/F3 (NPH) Activity
1 | C=CC(=O)Nc1cc(Nc2cc(N3OCC[C@@H]3c3cccc(C)c3F)ncn2)c(OC)cc1N1CCC(N2CC[C@@H](N(C)C)C2)CC1 [compound 418, N-(2-(4-((R)-3-(dimethylamino)pyrolidine-1-yl)piperidine-1-yl)-5-((6-((R)-3-(2-fluoro-3-methylphenyl)isoxazolidine-2-yl)pyrimidine-4-yl)amino)-4-methoxyphenyl) acrylamide] | A (GI50 < 50 nM)
2 | C=CC(=O)Nc1cc(Nc2cc(N3OCC[C@@H]3c3cccc(Cl)c3)ncn2)c(OC)cc1N1CCC(N2CC[C@@H](N(C)C)C2)CC1 [compound 413, N-(5-((6-((R)-3-(3-chlorophenyl)isoxazolidine-2-yl)pyrimidine-4-yl)amino)-2-(4-((R)-3-(dimethylamino)pyrolidine-1-yl)piperidine-1-yl)-4-methoxyphenyl) acrylamide] | A (GI50 < 50 nM)
3 | C=CC(=O)Nc1cc(Nc2cc(N3OCC[C@@H]3c3cccc4ccccc34)ncn2)c(OC)cc1N1CCC(N2CCN(C3CCC3)CC2)CC1 [Example 184, N-(2-(4-(4-cyclobutylpiperazine-1-yl)piperidine-1-yl)-4-methoxy-5-((6-((R)-3-(naphthalene-1-yl)isoxazolidine-2-yl)pyrimidine-4-yl)amino)phenyl)acrylamide] | B (50 nM ≤ GI50 < 500 nM)
4 | C=CC(=O)Nc1cc(Nc2cc(N3OCC[C@@H]3c3ccc(F)c(F)c3)ncn2)c(OC)cc1N1CC[C@@H](N2CCOCC2)C1 [compound 578, N-(5-((6-((R)-3-(3,4-difluorophenyl)isoxazolidine-2-yl)pyrimidine-4-yl)amino)-4-methoxy-2-((R)-3-morpholinopyrolidine-1-yl)phenyl)acrylamide] | B (50 nM ≤ GI50 < 500 nM)
5 | C=CC(=O)Nc1cc(Nc2cc(N3OCC[C@@H]3c3ccc(Cl)cc3F)ncn2)c(OC)cc1N1CC[C@@H](N(C)C)C1 [compound 456, N-(5-((6-((R)-3-(4-chloro-2-fluorophenyl)isoxazolidine-2-yl)pyrimidine-4-yl)amino)-2-((R)-3-(dimethylamino)pyrolidine-1-yl)-4-methoxyphenyl) acrylamide] | A (GI50 < 50 nM)
6 | C=CC(=O)Nc1cc(Nc2cc(N3OCC[C@@H]3c3ccc(F)c(F)c3)ncn2)c(OC)cc1N(C)CCN(C)C [compound 457, N-(5-((6-((R)-3-(3,4-difluorophenyl)isoxazolidine-2-yl)pyrimidine-4-yl)amino)-2-((2-(dimethylamino)ethyl)(methyl)amino)-4-methoxyphenyl) acrylamide] | A (GI50 < 50 nM)
7 | C=CC(=O)Nc1cc(Nc2cc(N3OCC[C@@H]3c3cc(F)ccc3F)ncn2)c(OC)cc1N1CCOCC1 [compound 825, N-(5-((6-((R)-3-(2,5-difluorophenyl)isoxazolidine-2-yl)pyrimidine-4-yl)amino)-4-methoxy-2-morpholinophenyl) acrylamide] | A (GI50 < 50 nM)
8 | C=CC(=O)Nc1cc(Nc2cc(N3OCC[C@@H]3c3cccc(C)c3F)ncn2)c(OC)cc1N(C)CCOC [compound 319, N-(5-((6-((R)-3-(2-fluoro-3-methylphenyl)isoxazolidine-2-yl)pyrimidine-4-yl)amino)-4-methoxy-2-((2-methoxyethyl) (methyl)amino)phenyl)acrylamide] | B (50 nM ≤ GI50 < 500 nM)
9 | C=CC(=O)Nc1cc(Nc2cc(N3OCC[C@@H]3c3cc(F)cc(F)c3)ncn2)c(OC)cc1N1CCC(N2C[C@H](C)O[C@@H](C)C2)CC1 [compound 752, N-(5-((6-((R)-3-(3,5-difluorophenyl)isoxazolidine-2-yl)pyrimidine-4-yl)amino)-2-(4-((2S,6S)-2,6-dimethylmorpholino)piperidine-1-yl)-4-methoxyphenyl) acrylamide] | A (GI50 < 50 nM)
10 | C=CC(=O)Nc1cc(Nc2cc(N3OCC[C@@H]3Cc3cccc(Cl)c3Cl)ncn2)c(OC)cc1N1CCC(N2C[C@@H](C)O[C@@H](C)C2)CC1 [compound 1010, N-(5-((6-((S)-3-(2,3-dichlorobenzyl)isoxazolidine-2-yl)pyrimidine-4-yl)amino)-2-(4-((2S,6R)-2,6-dimethylmorpholino)piperidine-1-yl)-4-methoxyphenyl) acrylamide] | A (GI50 < 50 nM)
11 | C=CC(=O)Nc1cc(Nc2cc(N3OCC[C@@H]3c3cc(F)cc(Cl)c3)ncn2)c(OC)cc1N1CCN(C2COC2)CC1 [compound 597, N-(5-((6-((R)-3-(3-chloro-5-fluorophenyl)isoxazolidine-2-yl)pyrimidine-4-yl)amino)-4-methoxy-2-(4-(oxetane-3-yl)piperazine-1-yl)phenyl) acrylamide] | A (GI50 < 50 nM)
12 | C=CC(=O)Nc1cc(Nc2cc(N3OCC[C@@H]3c3cccc(Cl)c3C)ncn2)c(OC)cc1N1CCC(N2CCN(CCC)CC2)CC1 [compound 582, N-(5-((6-((R)-3-(3-chloro-2-methylphenyl)isoxazolidine-2-yl)pyrimidine-4-yl)amino)-4-methoxy-2-(4-(4-propylpiperazine-1-yl)piperidine-1-yl)phenyl) acrylamide] | A (GI50 < 50 nM)
13 | C=CC(=O)Nc1cc(Nc2cc(N3OCC[C@@H]3c3ccc(C)nc3)ncn2)c(OC)cc1N1CCN(C2COC2)CC1 [Example 218, N-(4-methoxy-5-((6-((R)-3-(6-methylpyridine-3-yl)isoxazolidine-2-yl)pyrimidine-4-yl)amino)-2-(4-(oxetane-3-yl)piperazine-1-yl)phenyl)acrylamide] | B (50 nM ≤ GI50 < 500 nM)
14 | C#Cc1cccc([C@H]2CCON2c2cc(Nc3cc(NC(=O)C=C)c(N4CC[C@@H](N(C)C)C4)cc3OC)ncn2)c1 [compound 653, N-(2-((R)-3-(dimethylamino)pyrolidine-1-yl)-5-((6-((R)-3-(3-ethynylphenyl)isoxazolidine-2-yl)pyrimidine-4-yl)amino)-4-methoxyphenyl) acrylamide] | A (GI50 < 50 nM)
15 | C=CC(=O)Nc1cc(Nc2cc(N3OCC[C@@H]3c3cccc(Cl)c3)ncn2)c(OC)cc1N1CCN(CC)CC1 [compound 411, N-(5-((6-((R)-3-(3-chlorophenyl)isoxazolidine-2-yl)pyrimidine-4-yl)amino)-2-(4-ethylpiperazine-1-yl)-4-methoxyphenyl) acrylamide] | A (GI50 < 50 nM)
16 | C=CC(=O)Nc1cc(Nc2cc(N3OCC[C@@H]3c3cccc(Cl)c3F)ncn2)c(OC)cc1N1CCC(N2CCN(C3CC3)CC2)CC1 [Example 62, N-(5-((6-((R)-3-(3-chloro-2-fluorophenyl)isoxazolidine-2-yl)pyrimidine-4-yl)amino)-2-(4-(4-cyclopropylpiperazine-1-yl)piperidine-1-yl)-4-methoxyphenyl) acrylamide] | A (GI50 < 50 nM)
17 | C=CC(=O)Nc1cc(Nc2cc(N3OCC[C@@H]3c3ccc4ccccc4c3)ncn2)c(OC)cc1N1C[C@H](C)O[C@@H](C)C1 [compound 660, N-(2-((2S,6S)-2,6-dimethylmorpholino)-4-methoxy-5-((6-((R)-3-(naphthalene-2-yl)isoxazolidine-2-yl)pyrimidine-4-yl)amino)phenyl)acrylamide] | C (500 nM ≤ GI50 < 5000 nM)
18 | C=CC(=O)Nc1cc(Nc2cc(N3OCC[C@@H]3c3cccc(OC)c3)ncn2)c(OC)cc1N1CCC(N2CC[C@@H](N(C)C)C2)CC1 [compound 728, N-(2-(4-((R)-3-(dimethylamino)pyrolidine-1-yl)piperidine-1-yl)-4-methoxy-5-((6-((R)-3-(3-methoxyphenyl)isoxazolidine-2-yl)pyrimidine-4-yl)amino)phenyl)acrylamide] | A (GI50 < 50 nM)
19 | C=CC(=O)Nc1cc(Nc2cc(N3OCC[C@@H]3c3cccc(F)c3)ncn2)c(OC)cc1N(C)CCOC [compound 838, N-(5-((6-((R)-3-(3-fluorophenyl)isoxazolidine-2-yl)pyrimidine-4-yl)amino)-4-methoxy-2-((2-methoxyethyl)(methyl)amino)phenyl) acrylamide] | A (GI50 < 50 nM)
20 | C=CC(=O)Nc1cc(Nc2cc(N3OCC[C@@H]3c3cccc(F)c3F)ncn2)c(OC)cc1N1CCC(N2CCN(C)[C@H](C)C2)CC1 [compound 336, N-(5-((6-((R)-3-(2,3-difluorophenyl)isoxazolidine-2-yl)pyrimidine-4-yl)amino)-2-(4-((R)-3,4-dimethylpiperazine-1-yl)piperidine-1-yl)-4-methoxyphenyl) acrylamide] | A (GI50 < 50 nM)
21 | C=CC(=O)Nc1cc(Nc2cc(N3OCC[C@@H]3c3ccc(F)cc3F)ncn2)c(OC)cc1N(C)CCOC [compound 347, N-(5-((6-((R)-3-(2,4-difluorophenyl)isoxazolidine-2-yl)pyrimidine-4-yl)amino)-4-methoxy-2-((2-methoxyethyl)(methyl)amino)phenyl) acrylamide] | A (GI50 < 50 nM)
22 | C=CC(=O)Nc1cc(Nc2cc(N3OCC[C@@H]3c3ccc(F)cc3F)ncn2)c(OC)cc1N1CCN(CC2CC2)CC1 [compound 380, N-(2-(4-(cyclopropylmethyl)piperazine-1-yl)-5-((6-((R)-3-(2,4-difluorophenyl)isoxazolidine-2-yl)pyrimidine-4-yl)amino)-4-methoxyphenyl) acrylamide] | A (GI50 < 50 nM)
23 | C=CC(=O)Nc1cc(Nc2cc(N3OCC[C@@H]3c3cccc(F)c3Cl)ncn2)c(OC)cc1N1CCN(CC)CC1 [compound 559, N-(5-((6-((R)-3-(2-chloro-3-fluorophenyl)isoxazolidine-2-yl)pyrimidine-4-yl)amino)-2-(4-ethylpiperazine-1-yl)-4-methoxyphenyl) acrylamide] | A (GI50 < 50 nM)
24 | C=CC(=O)Nc1cc(Nc2cc(N3OCC[C@@H]3c3ccc(F)c(Cl)c3)ncn2)c(OC)cc1N1CCC(N2CCO[C@H](C)C2)CC1 [compound 874, N-(5-((6-((R)-3-(3-chloro-4-fluorophenyl)isoxazolidine-2-yl)pyrimidine-4-yl)amino)-4-methoxy-2-(4-((R)-2-methylmorpholino)piperidine-1-yl)phenyl) acrylamide] | A (GI50 < 50 nM)
